Source: patent publication US20260262643A1, “HERBICIDAL BENZOXAZINES” (FMC CORPORATION, priority 2022, published 2026)

Columns and labels:
barnyardgrass [1] = assay: Test A preemergence; type: in vivo, Echinochloa crusgalli; settings: visual injury after 10 days, 0 to 100 scale, 0 is no effect, 100 is complete control
Summary of the method: (§1)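 Seeds in loam–sand blend received a directed preemergence soil spray of compound in non-phytotoxic solvent with surfactant; postemergence plants (2–10 cm, one- to two-leaf stage) were sprayed with the same formulation. After 10 days in greenhouse, injury was rated visually versus untreated controls, 0 (no effect) to 100 (complete control).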

blackgrass [2] = assay: Test A preemergence; type: in vivo, Alopecurus myosuroides; settings: 0 to 100 scale
Summary of the method: as §1

corn [3] = assay: Test A preemergence; type: in vivo, Zea mays; settings: 0 to 100 scale
Summary of the method: as §1

foxtail, giant [4] = assay: Test A preemergence; type: in vivo, Setaria faberi; settings: 0 to 100 scale
Summary of the method: as §1

kochia [5] = assay: Test A preemergence; type: in vivo, Bassia scoparia; settings: 0 to 100 scale
Summary of the method: as §1

oat, wild [6] = assay: Test A preemergence; type: in vivo, Avena fatua; settings: 0 to 100 scale
Summary of the method: as §1

pigweed, palmer [7] = assay: Test A preemergence; type: in vivo, Amaranthus palmeri; settings: 0 to 100 scale
Summary of the method: as §1

ragweed [8] = assay: Test A preemergence; type: in vivo, Ambrosia artemisiifolia; settings: 0 to 100 scale
Summary of the method: as §1

ryegrass, Italian [9] = assay: Test A preemergence; type: in vivo, Lolium multiflorum; settings: 0 to 100 scale
Summary of the method: as §1

soybean [10] = assay: Test A preemergence; type: in vivo, Glycine max; settings: 0 to 100 scale
Summary of the method: as §1

wheat [11] = assay: Test A preemergence; type: in vivo, Triticum aestivum; settings: 0 to 100 scale
Summary of the method: as §1

barnyardgrass [12] = assay: Test A postemergence; type: in vivo, Echinochloa crusgalli; settings: postemergence, 10 days
Summary of the method: as §1

blackgrass [13] = assay: Test A postemergence; type: in vivo, Alopecurus myosuroides; settings: postemergence, 10 days
Summary of the method: as §1

corn [14] = assay: Test A postemergence; type: in vivo, Zea mays; settings: postemergence, 10 days
Summary of the method: as §1

foxtail, giant [15] = assay: Test A postemergence; type: in vivo, Setaria faberi; settings: postemergence, 10 days
Summary of the method: as §1

kochia [16] = assay: Test A postemergence; type: in vivo, Bassia scoparia; settings: postemergence, 10 days
Summary of the method: as §1

oat, wild [17] = assay: Test A postemergence; type: in vivo, Avena fatua; settings: postemergence, 10 days
Summary of the method: as §1

pigweed, palmer [18] = assay: Test A postemergence; type: in vivo, Amaranthus palmeri; settings: postemergence, 10 days
Summary of the method: as §1

ragweed [19] = assay: Test A postemergence; type: in vivo, Ambrosia artemisiifolia; settings: postemergence, 10 days
Summary of the method: as §1

ryegrass, Italian [20] = assay: Test A postemergence; type: in vivo, Lolium multiflorum; settings: postemergence, 10 days
Summary of the method: as §1

soybean [21] = assay: Test A postemergence; type: in vivo, Glycine max; settings: postemergence, 10 days
Summary of the method: as §1

wheat [22] = assay: Test A postemergence; type: in vivo, Triticum aestivum; settings: postemergence, 10 days
Summary of the method: as §1

galium = assay: Test A postemergence; type: in vivo, Galium aparine; settings: postemergence, 10 days
Summary of the method: as §1

horseweed = assay: Test A postemergence; type: in vivo, Erigeron canadensis; settings: postemergence, 10 days
Summary of the method: as §1

barnyardgrass [23] = assay: Test B flooded paddy test; type: in vivo, Echinochloa crus-galli; settings: 250 g ai/ha, Flood, 13 days, 0 to 100 scale (0 no effect, 100 complete control)
Summary of the method: (§2)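 Compound is introduced into paddy water covering soil by 3 cm, treating plants that have reached two leaves. Pots are kept flooded at that depth under greenhouse conditions. Assessment at 13 days gives a 0–100 visual control score.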

ducksalad = assay: Test B flooded paddy test; type: in vivo, Heteranthera limosa; settings: 250 g ai/ha, Flood, 13 days, 0 to 100 scale (0 no effect, 100 complete control)
Summary of the method: as §2

rice = assay: Test B flooded paddy test; type: in vivo, Oryza sativa; settings: 250 g ai/ha, Flood, 13 days, 0 to 100 scale (0 no effect, 100 complete control)
Summary of the method: as §2

sedge, umbrella = assay: Test B flooded paddy test; type: in vivo, Cyperus difformis; settings: 250 g ai/ha, Flood, 13 days, 0 to 100 scale (0 no effect, 100 complete control)
Summary of the method: as §2

[24] = 500 g ai/ha, visual injury after 10 days, 0 is no effect, 100 is complete control
[25] = 125 g ai/ha, 0 to 100 scale, 0 no effect, 100 complete control
[26] = 500 g ai/ha, visual injury, 0 to 100 scale (0 no effect, 100 complete control)

Cc1cccc2c1OC(C(F)(F)F)CN2C(=O)c1ccnc(-n2cncn2)c1 (stereo not shown) [Compound 144]
60: Plant response rating, Kochia (kochia [5]; [24]) | Plant response rating, Oat, Wild (oat, wild [6]; [24]) | Plant response rating, Kochia (kochia [16]; [26]) | Plant response rating, Wheat (wheat [22]; [26]) | Plant response rating, Sedge, Umbrella (sedge, umbrella)
0: Plant response rating, Kochia (kochia [5]; 125 g ai/ha) | Plant response rating, Ragweed (ragweed [8]; 125 g ai/ha) | Plant response rating, Soybean (soybean [10]; 125 g ai/ha) | Oat, Wild plant response rating (oat, wild [17]; [25]) | Ragweed plant response rating (ragweed [19]; [25]) | Plant response rating, Ragweed (ragweed [19]; [26]) | Horseweed plant response rating (horseweed; [25]) | Plant response rating, Horseweed (horseweed; [26]) | Plant response rating, Barnyardgrass (barnyardgrass [23]) | Plant response rating, Rice (rice)
50: Plant response rating, Barnyardgrass (barnyardgrass [1]; 125 g ai/ha) | Plant response rating, Blackgrass (blackgrass [2]; 125 g ai/ha) | Plant response rating, Corn (corn [3]; [24]) | Plant response rating, Wheat (wheat [11]; [24]) | Ryegrass, Italian plant response rating (ryegrass, Italian [20]; [25])
30: Plant response rating, Corn (corn [3]; 125 g ai/ha) | Plant response rating, Oat, Wild (oat, wild [6]; 125 g ai/ha) | Plant response rating, Ragweed (ragweed [8]; [24]) | Plant response rating, Wheat (wheat [11]; 125 g ai/ha)
90: Plant response rating, Barnyardgrass (barnyardgrass [1]; 500 g ai/ha) | Plant response rating, Ryegrass, Italian (ryegrass, Italian [9]; 125 g ai/ha) | Plant response rating, Barnyardgrass (barnyardgrass [12]; [26]) | Plant response rating, Blackgrass (blackgrass [13]; [26]) | Plant response rating, Foxtail, Giant (foxtail, giant [15]; [26]) | Plant response rating, Ryegrass, Italian (ryegrass, Italian [20]; [26])
70: Blackgrass plant response rating (blackgrass [13]; [25]) | Plant response rating, Corn (corn [14]; [26]) | Galium plant response rating (galium; [25])
20: Barnyardgrass plant response rating (barnyardgrass [12]; [25]) | Pigweed, Palmer plant response rating (pigweed, palmer [18]; [25]) | Wheat plant response rating (wheat [22]; [25])
80: Plant response rating, Blackgrass (blackgrass [2]; [24]) | Foxtail, Giant plant response rating (foxtail, giant [15]; [25])
40: Corn plant response rating (corn [14]; [25]) | Plant response rating, Oat, Wild (oat, wild [17]; [26]) | Plant response rating, Pigweed, Palmer (pigweed, palmer [18]; [26])
65: Plant response rating, Ducksalad (ducksalad)
10: Plant response rating, Pigweed, Palmer (pigweed, palmer [7]; 125 g ai/ha) | Kochia plant response rating (kochia [16]; [25])
100: Plant response rating, Foxtail, Giant (foxtail, giant [4]; 125 g ai/ha) | Plant response rating, Foxtail, Giant (foxtail, giant [4]; [24]) | Plant response rating, Pigweed, Palmer (pigweed, palmer [7]; [24]) | Plant response rating, Ryegrass, Italian (ryegrass, Italian [9]; [24]) | Plant response rating, Soybean (soybean [10]; [24]) | Soybean plant response rating (soybean [21]; [25]) | Plant response rating, Soybean (soybean [21]; [26]) | Plant response rating, Galium (galium; [26])
